Data on eleven molecules can be found in patent US20090036441A1, “Indole Derivatives With Antitumor Activity” (Cell Therapeutics Europe S.R.L., priority 2004, published 2009).

Assay [1] relates to secreted VEGF (Hep3B-VEGFLuciferase cells). Kind of assay: Secreted VEGF ELISA test in Hep3B-VEGFLuciferase cells, deferoxamine-induced hypoxia. It is filed as cell-based. Conditions: Homo sapiens, supernatant, deferoxamine about 100 μM, 18-20 hours, 50% reduction of secreted VEGF. As to the method:
(§1) The compounds having inhibitory activity in the Hif-1α/p300 assay described above were evaluated using a cellular test on genetically modified human hepatocarcinoma Hep3B cells (Hep3B-VEGFLuciferase) in order to stably express a vector in which the Open Reading Frame of firefly Luciferase was under the control of the rat VEGF gene promoter.
(§2) The Hep-3B-VEGFLuciferase cell line was obtained according to the following procedure.
(§3) Human hepatocarcinoma cells Hep-3B (ATCC reference No. HB-8064) were seeded onto 6 wells plates at a concentration of 2.5×10^5 cells/well in 2 ml DMEM/10% FCS and the following day were transfected using Fugene 6 (Roche Biochemicals®). In each well, the transfection mixtures contained 6 μl of the transfection reagent Fugene 6, 1 μg of the pxp2-VEGF-luciferase reporter plasmid (VEGF rat promoter, NCBI GenBank No. of accession U22373, Levy et al., J. Biol. Chem. 270 (22), 13333-13340. 1995), and 10 ng of pcDNA3.1(+)plasmid (INVITROGEN) which makes cells resistant to neomycin. Transfection was carried out according to the manufacturer's instructions.
(§4) A suitable cell population (phenotypically resistant to neomycin) was selected by means of a cloning approach based on the “dilution limit” procedure (Sambrook J., Fritsch E. F. and Maniatis T. (1989) Molecular Cloning, A Laboratory Manual; Cold Spring Harbor Laboratories). The subsequent assays for Luciferase expression/activity “Luciferase assay” and for the quantification of secreted VEGF in the supernatant “ELISA secreted VEGF test”) were carried out with the stably transfected selected cells.
(§5) The following experimental protocol was used:
(§6) Day 1. Hep-3B-VEGF Luciferase cells were seeded onto 96-wells “blank” plates (a product by Greiner) at a density of 1×10^4 cells/well/125 μl of medium, then left to adhere overnight in thermostat (37° C./5% CO2).
(§7) Day 2. 75 μl of “3.2× working solutions” of compound (previously prepared in culture medium so that the DMSO concentration is 1.6% v/v) were added to the cells (partial volume/well=200 μl, partial concentration of compound=1.2×, partial concentration of DMSO=0.6%). After 1 hour incubation in thermostat, hypoxia was induced chemically by addition of 40 μl/well of a 6× (600 μM) stock solution of deferoxamine (final volume/well=240 μl, final concentration of compound=1×, final concentration of DMSO=0.5%, final concentration of deferoxamine=1×≈100 μM). The plates were then thermostated for further 18-20 hours.
(§8) Day 3. The “Luciferase assay” and the “secreted VEGF ELISA test” were carried out as follows.
“Secreted VEGF ELISA Test”
Quantification of secreted VEGF was performed using the kit “DuoSet Elisa Development System human VEGF” kit (R&D Systems). 100 μl/well of the supernatant from the “blank” 96 well-plates with the cells of the Hep3B/VEGF Luciferase clone were transferred into transparent 96-well plates of (Maxisorp) and assayed according to the indications of the kit manufacturer.
(§9) IC50 values (concentration of the compound that causes 50% inhibition of the luciferase signal or 50% reduction of secreted VEGF) for some compounds of the invention are reported in table 2: […]
(In general: In an ELISA, binding on a coated surface is turned into a signal by an enzyme label.)

In assay [2] the test system is VEGF promoter (rat VEGF gene promoter, Hep3B-VEGFLuciferase cells). The experiment in a line: Luciferase assay in Hep3B-VEGFLuciferase cells, deferoxamine-induced hypoxia. It is filed as cell-based. Conditions: Homo sapiens, deferoxamine about 100 μM, 18-20 hours, 50% inhibition of the luciferase signal. As to the method:
as §1
Hif-1 Induction using deferoxamine (which induces hypoxia) induces luciferase transcription through activation of the VEGF promoter, which in turn causes an increase in luciferase activity, which can be measured with a commercially available kit. The compounds interfering with the Hif-1α/p300 complex inhibit Hif-dependent luciferase activation, resulting in a reduction of luciferase activity. This assay therefore allows to evaluate the activity of the compounds towards the VEGF promoter, which is essential to VEGF production and the subsequent tumor angiogenesis.
as §2, §3, §4, §5, §6, §7, §8
Quantification of the expression of the Luciferase reporter gene was performed by means of the Bright Glo Reagent (Promega). After removing the supernatant and washing once with PBS, 40 μl/well of Bright Glo Reagent were added to blank 96-well plates with Hep3B/VEGF-Luciferase cells. The expression levels of the reporter gene were determined by reading the plates with a luminometer.
as §9

Assay [3] deals with T1, Biot-Hif-1α^786-826/GST-p300^323/423 (Homo sapiens, UniProt Q09472).
T1 construct: the p300 region ranging from amino acids 323 to 423; fragment corresponding to C-terminal 786-826 amino acids; host or cells: E. coli BL21 (DE3), vector pGEX-4T-1
Kind of assay: Primary biochemical assay (DELFIA fluorescence) for inhibition of the Hif-1α/p300 interaction. The class given is binding. The following applies: 10 concentrations from 90 μM to 0.178 μM, 1 h at 25° C. As to the method:
Primary Biochemical Assay for the Inhibition of Biot-Hif-1α^786-826/GST-p300^323/423
The compounds were evaluated for their ability to inhibit the interaction between Hif-1α and p300 using a fluorescence assay (DELFIA™). The procedure described by Freedman S J at al., Nature Structural Biology 2003, 10 (7), 504-512 was suitably modified.
The human biotinylated Hif-1α fragment corresponding to C-terminal 786-826 amino acids (Biotinylated Hif-1α^786-826) was obtained from AnaSpec Inc (San Jose, Calif., USA) and used without further purifications.
A construct expressing the GST-p300^323-423 fragment was transformed in the BL21 (DE3) strain of E. coli. Said construct was obtained by cloning in the expression vector pGEX-4T-1 (Amersham No. 27-45-80-01) the DNA sequence which encodes for the p300 region ranging from amino acids 323 to 423; the DNA sequence was obtained by PCR (Polymerase Chain Reaction). The protein region was induced with 1 mM isopropyl-1-tio-β-D-galactopyranoside (IPTG). The bacteria were lysed by sonication in the presence of a suitable buffer (50 mM Tris*HCl pH 8.00, 100 mM NaCl, 0.1 mM ZnSO4, 1 mM DTT, 0.1 mg/ml lysozyme and a tablet of Complete EDTA-free Protease Inhibitor Cocktail Tablets (Roche, catalogue number 1 873 580)) and the GST fusion protein present in the soluble fraction was purified on a Glutathione-Sepharose 4B resin (Amersham Biosciences; no. 27-4574-01). The protein final concentration was determined according to Bradford with the Biorad assay (Bradford M., Anal. Biochem., 72, 248, (1976)). The purity of the sample was evaluated by SDS-PAGE. Samples were stored at −80° C. in 50% glycerol.
The assay was carried out using NUNC Maxisorp 96 wells plates as follows.
C96 NUNC Maxisorp plates (from Nunc, product No. 446612) were incubated overnight with streptavidin (Sigma; product No. S 4762) to a final concentration of 1 μg/ml in PBS buffer (Phosphate Buffered Saline 10 mM sodium phosphate, 150 mM sodium chloride pH 7.4). Each well was subsequently washed with 3×300 μl of TBST buffer (50 mM Tris*HCl pH 8.0, 150 mM NaCl, 0.05% (v/v) Tween 20). Each well was then added with 100 μl of a 10 nM solution of biotinylated Hif-1α^786-826 in TBSB (50 mM Tris-HCl pH 8.0, 150 mM NaCl, 5% (w/v) BSA (Sigma, product No. A 2153)) and incubated for 1 h at 25° C. In the last row of each plate, only the TBSB buffer was added. Each well was subsequently washed three times with 300 μl of TBST buffer. The thus prepared plate represented the assay plate.
Separately, the plate (daughter plate) containing in each well 10 μl of each test compound dissolved in DMSO to a concentration of 10 μM was prepared. This plate was added with 100 μl of a 111 pM solution of GST-p300^323-423 diluted in the incubation buffer (TBSB added with 0.1% (v/v) Tween 20, 0.5 mM DTT, 10 μM ZnCl2) and the whole was mixed. 100 μl of the mixture contained in the daughter plate were immediately transferred to the assay plate.
Each daughter plate was prepared with 80 different compounds at a 10 μM concentration, safe for the two last well rows, wherein each well was added with 10 μl of DMSO. These two rows represented the positive (row 11, +Hif-1) and negative (row 12, −Hif-1) controls.
After incubation for 1 h at 25° C., each well was washed with 3×300 μl of TBST buffer (50 mM Tris-HCl pH 8.0. 150 mM NaCl, 0.05% (v/v) Tween 20). Each well was then added with 60.8 ng of an europium-labelled anti-GST antibody (DELFIA Eu-N1 labeled; Perkin Elmer; product no. A D 0251) dissolved in 100 μl of TBST buffer containing 10 μM ZnCl2. After incubation for 1 h at room temperature, each well was washed with 3×300 μl of TBST buffer, then 100 μl of signal amplification solution (Enhancement Solution, Perkin Elmer product No. 1244-105) were added.
The plates were then read using a FUSION alpha-FP-HT reader (Perkin Elmer) in fluorescence mode for time resolution.
The activity of the compounds was calculated as follows. […]

SMILES strings stand for the structures.

T1 sequence (Q09472 323-423): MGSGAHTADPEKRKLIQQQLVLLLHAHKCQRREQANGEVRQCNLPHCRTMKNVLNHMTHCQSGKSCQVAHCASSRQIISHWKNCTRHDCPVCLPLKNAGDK

As a reminder, the IC50 is the point on the concentration scale where inhibition reaches its midpoint. A high value points to weaker potency in that assay. As for `CCOC(=O)c1c2c(n(C)c1CN1CCOCC1)C(=O)C(=O)c1ccc(Br)cc1-2` [Example 4, Ethyl 8-bromo-3-methyl-2-(morpholin-4′-yl)methyl-4,5-dioxo-4,5-dihydro-3H-benzo[e]indole-1-carboxylate], the results for the IC50 in assay [1], in assay [2] and in assay [3] were 4.8 µM, 1.1 µM and 11 µM, respectively.
As for `CCOC(=O)c1c2c(n(C)c1CO)C(=O)C(=O)c1ccc(Br)cc1-2` [12(a), Ethyl 8-bromo-2-hydroxymethyl-3-methyl-4,5-dioxo-4,5-dihydro-3H-benzo[e]indole-1-carboxylate], the IC50 is 2.03 µM in assay [1], 0.32 µM in assay [2] and 14.2 µM in assay [3].
For the molecule `CCOC(=O)c1c2c(n(CC(=O)OC(C)(C)C)c1C)C(=O)C(=O)c1ccc(Br)cc1-2` [Example 7, Ethyl 8-bromo-3-tert-butoxycarbonylmethyl-2-methyl-4,5-dioxo-4,5-dihydro-3H-benzo[e]indole-1-carboxylate], the IC50 was 9.3 µM in assay [1], 1.6 µM in assay [2] and 14.9 µM in assay [3].
In the case of `CCOC(=O)c1c2c(n(C)c1CN(C)C)C(=O)C(=O)c1ccc(Br)cc1-2` [Example 5, Ethyl 8-bromo-2-dimethylaminomethyl-3-methyl-4,5-dioxo-4,5-dihydro-3H-benzo[e]indole-1-carboxylate], the IC50 in assay [1] amounted to 1.2 µM; in assay [2] it was 0.26 µM; in assay [3] it was 1.5 µM.
With `CCOC(=O)c1c2c(n(C)c1C)C(=O)C(=O)c1ccc(Br)cc1-2` [Example 3, Ethyl 8-bromo-2,3-dimethyl-4,5-dioxo-4,5-dihydro-3H-benzo[e]indole-1-carboxylate], the IC50 in assay [1] stood at 10.7 µM; in assay [2], 0.47 µM; in assay [3] it was 3.3 µM.
As for `CCOC(=O)c1c(C)[nH]c2c1-c1cc(Br)ccc1C(=O)C2=O` [Example 1, Ethyl 8-bromo-2-methyl-4,5-dioxo-4,5-dihydro-3H-benzo[e]indole-1-carboxylate], the values for the IC50 in assay [1], in assay [2] and in assay [3] were 5.78 µM, 0.45 µM and 13.2 µM, respectively.
For `CCOC(=O)c1c2c(n(CC(=O)O)c1C)C(=O)C(=O)c1ccc(Br)cc1-2` [Example 8, Ethyl 8-bromo-3-carboxymethyl-2-methyl-4,5-dioxo-4,5-dihydro-3H-benzo[e]indole-1-carboxylate], in that order: over 12.5 µM, over 12.5 µM and 32.9 µM.
For `CCOC(=O)c1c2c(n(C)c1CNC(C)C)C(=O)C(=O)c1ccc(Br)cc1-2` [Example 6, Ethyl 8-bromo-2-isopropylaminomethyl-3-methyl-4,5-dioxo-4,5-dihydro-3H-benzo[e]indole-1-carboxylate], in that order: 0.3 µM, 0.3 µM and 9.1 µM.
For `CCOC(=O)c1c2c(n(Cc3ccccc3)c1C)C(=O)C(=O)c1ccc(Br)cc1-2` [12(c), Ethyl 8-bromo-2-methyl-3-benzyl-4,5-dioxo-4,5-dihydro-3H-benzo[e]indole-1-carboxylate], in that order: 14.5 µM, 1.08 µM and 7.3 µM.
`CCOC(=O)c1c2c(n(CC(N)=O)c1C)C(=O)C(=O)c1ccc(Br)cc1-2` [Example 9, Ethyl 8-bromo-3-carbamoylmethyl-2-methyl-4,5-dioxo-4,5-dihydro-3H-benzo[e]indole-1-carboxylate]: the IC50 is over 12.5 µM in assay [1], 0.6 µM in assay [2] and 9.6 µM in assay [3].
On to `CCOC(=O)c1c2c(n(C)c1CN(CC)CC)C(=O)C(=O)c1ccc(Br)cc1-2` [12(b), Ethyl 8-bromo-2-diethylaminomethyl-3-methyl-4,5-dioxo-4,5-dihydro-3H-benzo[e]indole-1-carboxylate], for which the IC50 in assay [1] is 2.03 µM; in assay [2] it was 0.32 µM; in assay [3] it was 13.3 µM.
